Measured values: patent US5098900A, “3(2H)pyridazinone, process for its preparation and anti-allergic agent containing it” (Nissan Chemical Industries Ltd., priority 1984, dated 1992)

System: LTD4
Assay: LTD4 antagonism in isolated guinea-pig trachea (LTD4-induced contraction)
Assay type: cell-based
Settings: 5 min, test compound 10^-5 g/ml, LTD4 2×10^-8 g/ml; for inhibition at 10 µg/mL: Cavia porcellus
Protocol: (ii) LTC4 and LTD4 antagonisms in guinea-pig trachea
Antagonism for LTC4 and LTD4 were determined in isolated guinea-pig trachea prepared as spiral strip. 10 Tracheal preparations were suspended under 1 g tension in […] and they were incubated for 1 hr prior to use. Contractile responses to LTC4 (2×10^-8 g/ml) and LTD4 (2×10^-8 g/ml) were obtained after the maximal response to histamine (10^-4 M). Test compounds dissolved in 100% dimethyl sulfoxide were added to the organ baths (final concentration of 10^-5 g/ml) 5 min prior to LTC4 and LTD4 addition, and then contractile responses to LTC4 and LTD4 were compared with those of control which was obtained from a paired trachea in the absence of test compounds. LTC4 - and LTD4 -induced contractions were expressed as a percentage of the maximal response to histamine. The antagonism was determined as follows: Antagonism (%)=(1.0-% contraction in test/% contraction in control)×100

Compound | inhibition at 10 µg/mL | LTD4 antagonism
CCc1cc(CNc2cnn(CC)c(=O)c2Cl)ccc1OCc1ccccc1 [compound 83] | 74% | –
COc1ccc(CNc2cnn(C(C)(C)C)c(=O)c2Br)cc1OC [compound 17] | 80% | –
CCn1ncc(NCc2ccc(SC)cc2)c(Cl)c1=O [compound 124] | 71% | –
CCc1cc(CNc2cnn(CC)c(=O)c2Cl)ccc1OC [compound 85] | 91% | –
CN(C)c1ccc(CNc2cnn(C(C)(C)C)c(=O)c2Br)cc1 [compound 28] | 52% | –
CCCOc1ccc(CNc2cnn(CC)c(=O)c2Cl)cc1OC [compound 108] | 53% | –
Cc1ccc(CNc2cnn(C(C)C)c(=O)c2Br)c(C)c1 [compound 168] | 99% | –
COc1cccc(CNc2cnn(C(C)(C)C)c(=O)c2Cl)c1 [Compound No. 8] | 53% | –
COc1cc(CNc2cnn(C(C)C)c(=O)c2Cl)cc(OC)c1 [compound 98] | 55% | –
CC(C)n1ncc(NCc2cccc(OCCCCC(=O)OC(C)(C)C)c2)c(Cl)c1=O [Compound No. 139, 4-Chloro-5-[3-(4-t-butoxycarbonyl)butoxybenzylamino]-2-i-propyl-3(2H)pyridazinone] | 57% | –
CC(C)n1ncc(NCc2ccc(C=O)cc2)c(Cl)c1=O [Compound No. 140, 4-Chloro-5-(4-formylbenzylamino)-2-i-proyl-3(2H)pyridazinone] | 77% | –
CC(C)n1ncc(NCc2ccc(N(C)C)cc2)c(Cl)c1=O [compound 45] | – | 14%
COc1ccc(CNc2cnn(C(C)C)c(=O)c2Br)c(OC)c1 [compound 169] | 100% | –
C=CCNC(=O)c1ccc(CNc2cnn(C(C)(C)C)c(=O)c2Cl)cc1 [Compound No. 54, 4-Chloro-5-(4-allylaminocarbonylbenzylamino)-2-t-butyl-3(2H)pyridazinone] | 10% | –
CCCOc1cc(CNc2cnn(C(C)C)c(=O)c2Cl)ccc1OCc1ccccc1 [compound 117] | 25% | –
COc1ccc(CNc2cnn(C(C)C)c(=O)c2)c(OC)c1 [Compound No. 100, 5-(2,4-dimethoxybenzylamino)-2-i-propyl-3(2H)pyridazinone] | 21% | –
COCCOc1cc(CNc2cnn(C(C)C)c(=O)c2Cl)ccc1OC [compound 148] | 62% | –
CNC(=O)CCCCOc1cccc(CNc2cnn(C(C)C)c(=O)c2Cl)c1 [Compound No. 146, 4-Chloro-5-[3-(4-N-methylaminocarbonyl)butoxybenzylamino]-2-i-propyl-3(2H)pyridazinone] | 32% | –
CC(C)n1ncc(NCc2ccc(O)cc2)c(Cl)c1=O [compound 130] | 100% | –
CCOc1ccccc1CNc1cnn(C(C)C)c(=O)c1Cl [compound 92] | 92% | –
CCc1cc(CNc2cnn(C(C)C)c(=O)c2Cl)ccc1OCc1ccccc1 [compound 82] | 46% | –
CCc1cc(CNc2cnn(C(C)C)c(=O)c2Cl)ccc1O [compound 131] | 52% | –
CCCOc1cccc(CNc2cnn(CC)c(=O)c2Br)c1 [compound 157] | 88% | –
CCOCCCNC(=O)c1ccc(CNc2cnn(C(C)(C)C)c(=O)c2Cl)cc1 [compound 57] | 27% | –

Compound | inhibition at 10 µg/mL | LTD4 antagonism
CCOc1cc(CNc2cnn(CC)c(=O)c2Cl)ccc1O [compound 136] | 64% | –
CCc1c(NCc2ccc(C)cc2)cnn(C(C)(C)C)c1=O [Compound No. 36, 4-Ethyl-5-(4-methylbenzylamino)-2-t-butyl-3(2H)pyridazinone] | 19% | –
CCCOc1cc(CNc2cnn(CC)c(=O)c2Cl)ccc1OCc1ccccc1 [compound 118] | 61% | –
CCCCCOc1cc(CNc2cnn(C(C)(C)C)c(=O)c2Cl)ccc1OC [compound 20] | 17% | –
CCOc1cccc(CNc2cnn(CC)c(=O)c2Cl)c1OC [compound 110] | 69% | –
CCOc1cccc(CNc2cnn(CC)c(=O)c2Cl)c1O [compound 129] | 48% | –
CCOC(=O)CCNC(=O)/C=C/c1ccc(CNc2cnn(C(C)(C)C)c(=O)c2Cl)cc1 [Compound No. 60] | 15% | –
COc1ccc(CNc2cnn(C(C)C)c(=O)c2Cl)cc1O [compound 138] | 86% | –
COCCCCCOc1cccc(CN(C)c2cnn(C(C)C)c(=O)c2Cl)c1 [Compound No. 149, 4-Chloro-5-[3-(5-methoxy)pentoxy-N-methylbenzylamino]-2-i-propyl-3(2H)pyridazinone] | 68% | –
CCc1cc(CNc2cnn(CC)c(=O)c2Cl)ccc1O [compound 132] | 61% | –
CCOc1cccc(CNc2cnn(C(C)C)c(=O)c2C)c1 [compound 152] | 75% | –
COc1ccc(CNc2cnn(C(C)C)c(=O)c2Cl)cc1OCCCCC(=O)O [compound 143] | 28% | –
COc1cccc(CNc2cnn(C(C)C)c(=O)c2Br)c1 [compound 163] | 95% | –
CC(C)n1ncc(NCc2cccc(OCCCCCO)c2)c(Cl)c1=O [Compound No. 147, 4-Chloro-5-[3-(5-hydroxy)pentoxybenzylamino]-2-i-propyl-3(2H)pyridazinone] | 73% | –
COc1ccc(OC)c(CNc2cnn(C(C)C)c(=O)c2Cl)c1 [compound 104] | 68% | –
CCn1ncc(NCc2cc(OC)c(OC)c(OC)c2)c(Cl)c1=O [compound 121] | 31% | –
COc1ccc(CNc2cnn(C(C)C)c(=O)c2Cl)cc1OCCCCC(=O)OC(C)(C)C [compound 141] | 90% | –
CCOc1cccc(CNc2cnn(C(C)C)c(=O)c2Br)c1 [compound 165] | 71% | –
CCOc1cc(CNc2cnn(CC)c(=O)c2Br)ccc1OC [compound 160] | 98% | –
CCOc1cc(CNc2cnn(CC)c(=O)c2Cl)ccc1OCc1ccccc1 [compound 115] | 73% | –
CC(C)n1ncc(NCc2ccc(Cl)cc2)c(Cl)c1=O [compound 123] | 88% | –
CCOc1cccc(CNc2cnn(C(C)C)c(=O)c2)c1O [compound 128] | 21% | –
CN(C)CCNC(=O)c1ccc(CNc2cnn(C(C)(C)C)c(=O)c2Cl)cc1 [compound 50] | – | 12%
CCCN(CCC)C(=O)c1ccc(CNc2cnn(C(C)(C)C)c(=O)c2Cl)cc1 [compound 39] | 67% | –

Compound | inhibition at 10 µg/mL | LTD4 antagonism
CCn1ncc(NCc2ccc(OC)cc2)c(Br)c1=O [compound 154] | 100% | –
CCCOc1cc(CNc2cnn(C(C)C)c(=O)c2Cl)ccc1O [compound 133] | 66% | –
CCOc1cccc(CNc2cnn(C(C)C)c(=O)c2Cl)c1OC [compound 111] | 72% | –
CCn1ncc(NCc2ccc(OC)cc2OC)c(Br)c1=O [compound 159] | 98% | –
COc1cc(CNc2cnn(C(C)C)c(=O)c2Cl)cc(OC)c1OC [compound 122] | 23% | –
COc1cccc(CNc2cnn(C(C)C)c(=O)c2Cl)c1 [Compound No. 7] | 92% | –
CC(C)(C)n1ncc(NCc2ccc(/C=C/C(=O)NCCC(=O)O)cc2)c(Cl)c1=O [Compound No. 61, 4-Chloro-5-[4-(β-carboxyethylaminocarbonyl-2-transethenyl)benzylamino]-2-t-butyl-3(2H)pyridazinone] | 21% | –
CCCCCOc1cc(CNc2cnn(CC)c(=O)c2Cl)ccc1OC [compound 19] | 66% | –
CCOc1cc(CNc2cnn(C(C)C)c(=O)c2Cl)ccc1OCc1ccccc1 [compound 113] | 40% | –
CCCOc1cc(CNc2cnn(C(C)C)c(=O)c2C)ccc1OC [compound 153] | 45% | –
CCn1ncc(NCc2ccc(C)cc2C)c(Br)c1=O [compound 158] | 99% | –
CCOc1cc(CNc2cnn(C(C)C)c(=O)c2Cl)ccc1O [compound 135] | 61% | –
COc1ccc(CNc2cnn(C(C)C)c(=O)c2C)cc1 [Compound No. 151, 4-Methyl-5-(4-methoxybenzylamino)-2-i-propyl-3(2H)-pyridazinone] | 78% | –
CCCn1ncc(NCc2ccc(N(C)C)cc2)c(Cl)c1=O [compound 126] | 63% | –
CC(C)n1ncc(N(C)Cc2cccc(OCCCCCO)c2)c(Cl)c1=O [Compound No. 150, 4-Chloro-5-[3-(5-hydroxy)pentoxy-N-methyl-benzylamino]-2-i-propyl-3(2H)pyridazinone] | 57% | –
CCc1ccc(CNc2cnn(CC)c(=O)c2Cl)cc1 [compound 81] | 68% | –
CCn1ncc(NCc2ccc(N(C)C)cc2)c(Cl)c1=O [compound 46] | 49% | –
CC(C)n1ncc(NCc2ccc(OCc3ccccc3)cc2)c(Cl)c1=O [compound 96] | 59% | –
CCOc1cc(CNc2cnn(C(C)C)c(=O)c2Br)ccc1OC [compound 166] | 100% | –
COC(=O)CCCCOc1cccc(CNc2cnn(C(C)C)c(=O)c2Cl)c1 [Compound No. 144] | 44% | –
CCCOc1cc(CNc2cnn(CC)c(=O)c2Br)ccc1OC [compound 161] | 95% | –
CCCN(CCC)C(=O)c1ccc(CNc2cnn(C(C)C)c(=O)c2Cl)cc1 [Compound No. 125, 4-Chloro-5-(4-di-n-propylaminocarbonylbenzylamino)-2-i-propyl-3(2H)pyridazinone] | 53% | –
CCc1cc(CNc2cnn(C(C)C)c(=O)c2Cl)ccc1OC [compound 84] | 96% | –
